Data: patent US20170210723A1, “MOLECULES HAVING PESTICIDAL UTILITY, AND INTERMEDIATES, COMPOSITIONS, AND PROCESSES, RELATED THERETO” (priority 2016, published 2017)

Tests used:
Type in all cases: in vivo
[1] = system: Green Peach Aphid (Myzus persicae); experiment: Bioassays on Green Peach Aphid, foliar spray on cabbage seedlings; conditions: 72 h, 200 ppm spray on cabbage seedlings, three days, Abbott corrected % control, read-out: GPA % Control (or Mortality) rating
Method: Cabbage seedlings grown in 3-inch pots, with 2-3 small (3-5 cm) true leaves, were used as test substrate. The seedlings were infested with 20-50 GPA (wingless adult and nymph stages) one day prior to chemical application. Four pots with individual seedlings were used for each treatment. Test molecules (2 mg) were dissolved in 2 mL of acetone/methanol (1:1) solvent, forming stock solutions of 1000 ppm test molecule. The stock solutions were diluted 5× with 0.025% Tween 20 in water to obtain the solution at 200 ppm test molecule. A hand-held aspirator-type sprayer was used for spraying a solution to both sides of […] leaves until runoff. Reference plants (solvent check) were sprayed with the diluent only containing 20% by volume of acetone/methanol (1:1) solvent. Treated plants were held in a holding room for three days at approximately 25° C. and ambient relative humidity (RH) prior to grading. Evaluation was conducted by counting the number of live aphids per plant under a microscope. Percent Control was measured by using Abbott's correction formula (W. S. Abbott, “A Method of Computing the Effectiveness of an Insecticide” J. Econ. Entomol. 18 (1925), pp. 265-267) as follows.
Corrected % Control=100*(X−Y)/X • where • X=No. of live aphids on solvent check plants and • Y=No. of live aphids on treated plants

[2] = system: Yellow Fever Mosquito (Aedes aegypti); experiment: Bioassays on Yellow Fever Mosquito larvae, 96-well plate; conditions: from 4000 ppm DMSO master plate, about 1 day-old larvae, 3 days
Outline: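 Aedes aegypti larvae about 1 day old, in water with liver powder, exposed in 96-well plates to compounds from a 4000 ppm DMSO master solution diluted in 90:10 water:acetone. Plates covered and held at room temperature for 3 days, then each well scored for mortality; 6 replicate plates.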

[3] = system: Cabbage Looper (Trichoplusia ni); experiment: Bioassays on CL, 128-well diet tray assay; conditions: Trichoplusia ni; for mortality at 50 µg/cm2: 168 h, 50 μg/cm^2 on artificial diet, second instar larvae, five to seven days, read-out: CL % Control (or Mortality) rating
Outline: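 Second-instar larvae (1–5 per well) were fed diet surface-treated with 50 μg/cm^2 compound, eight wells each. After five to seven days at 25° C. under a 14:10 photoperiod, mortality was scored per well and the eight wells averaged.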

[4] = system: Beet Armyworm (Spodoptera exigua); experiment: Bioassays on BAW, 128-well diet tray assay; conditions: Spodoptera exigua; for mortality at 50 µg/cm2: 168 h, 50 μg/cm^2 on artificial diet, second instar larvae, five to seven days, read-out: BAW % Control (or Mortality) rating

Structure (SMILES) | mortality at 200 ppm [1] | YFM % Control (or Mortality) rating [2] | mortality at 50 µg/cm2 [3] | mortality at 50 µg/cm2 [4] | mortality at 0.05 µg/cm2 ([3]; 0.05 μg/cm^2, read-out: CL Percent control (or mortality)) | mortality at 0.5 µg/cm2 ([3]; 0.5 μg/cm^2, read-out: CL Percent control (or mortality)) | mortality at 5 µg/cm2 ([3]; 5 μg/cm^2, read-out: CL Percent control (or mortality)) | mortality at 0.05 µg/cm2 ([4]; 0.05 μg/cm^2, read-out: BAW Percent control (or mortality)) | mortality at 0.5 µg/cm2 ([4]; 0.5 μg/cm^2, read-out: BAW Percent control (or mortality)) | mortality at 5 µg/cm2 ([4]; 5 μg/cm^2, read-out: BAW Percent control (or mortality))
C[C@H](CSCC(F)(F)F)NC(=O)c1ccc(/C=C/C(c2cc(Cl)c(Cl)c(Cl)c2)C(F)(F)F)cc1Br (stereo partly drawn) [F38, 2-Bromo-4-((E)-4,4,4-trifluoro-3-(3,4,5-trichlorophenyl)but-1-en-1-yl)-N-((R)-1-((2,2,2-trifluoroethyl)thio)propan-2-yl)benzamide] | 0 to 80% | A (80-100) | 50 to 100% | 50 to 100% |  |  |  |  |  | 
C[C@H](CSCCF)NC(=O)c1ccc(/C=C/C(c2cc(Cl)c(Cl)c(Cl)c2)C(C)(F)F)cc1C(F)(F)F (stereo partly drawn) [F119, 4-((E)-4,4-Difluoro-3-(3,4,5-trichlorophenyl)pent-1-en-1-yl)-N—((R)-1-((2-fluoroethyl)thio)propan-2-yl)-2-(trifluoromethyl)benzamide] | 0 to 80% | A (80-100) | 50 to 100% | 50 to 100% |  |  |  |  |  | 
CS(=O)(=O)CC[C@@H](NC(=O)c1ccc(/C=C/C(c2cc(Cl)c(Cl)c(Cl)c2)C(F)(F)F)cc1Br)C(=O)NCC(F)(F)F (stereo partly drawn) [F25, 2-bromo-N—((R)-4-(methylsulfonyl)-1-oxo-1-((2,2,2-trifluoroethyl)amino)butan-2-yl)-4-((E)-4,4,4-trifluoro-3-(3,4,5-trichlorophenyl)but-1-en-1-yl)benzamide] | 0 to 80% | A (80-100) | 50 to 100% | 50 to 100% |  |  |  |  |  | 
C[C@H](CS(=O)(=O)CC(F)(F)F)NC(=O)c1ccc(/C=C/C(c2cc(Br)c(Cl)c(Br)c2)C(F)(F)F)cc1C(F)(F)F (stereo partly drawn) [F59, 4-((E)-3-(3,5-Dibromo-4-chlorophenyl)-4,4,4-trifluorobut-1-en-1-yl)-N—((R)-1-((2,2,2-trifluoroethyl)sulfonyl)propan-2-yl)-2-(trifluoromethyl)benzamide] | 0% |  | 50 to 100% | 50 to 100% |  |  |  |  |  | 
CC(C)(CS(=O)(=O)CC(F)(F)F)NC(=O)c1ccc(/C=C/C(c2cc(Cl)c(Cl)c(Cl)c2)C(F)(F)F)cc1C(F)(F)F (stereo not drawn) [F48, (E)-N-(2-Methyl-1-((2,2,2-trifluoroethyl)sulfonyl)propan-2-yl)-4-(4,4,4-trifluoro-3-(3,4,5-trichlorophenyl)but-1-en-1-yl)-2-(trifluoromethyl)benzamide] |  | A (80-100) | 50 to 100% | 50 to 100% |  |  |  |  |  | 
O=C(NC1(CS(=O)(=O)CC(F)(F)F)CC1)c1ccc(/C=C/C(c2cc(Cl)c(Cl)c(Cl)c2)C(F)(F)F)cc1C(F)(F)F (stereo not drawn) [F112, (E)-4-(4,4,4-Trifluoro-3-(3,4,5-trichlorophenyl)but-1-en-1-yl)-N-(1-(((2,2,2-trifluoroethyl)sulfonyl)methyl)cyclopropyl)-2-(trifluoromethyl)benzamide] |  | A (80-100) | 50 to 100% | 50 to 100% |  |  |  |  |  | 
Cc1cc(/C=C/C(c2cc(Cl)c(Cl)c(Cl)c2)C(F)(F)F)ccc1C(=O)N[C@H](C)CS(=O)(=O)CC(F)(F)F (stereo partly drawn) [F40, 2-Methyl-4-((E)-4,4,4-trifluoro-3-(3,4,5-trichlorophenyl)but-1-en-1-yl)-N—((R)-1-((2,2,2-trifluoroethyl)sulfonyl)propan-2-yl)benzamide] |  | A (80-100) | 50 to 100% | 50 to 100% | 100% | 100% | 100% | 60% | 100% | 100%
Cc1cc(/C=C/C(c2cc(Cl)c(Cl)c(Cl)c2)C(F)(F)F)cc(F)c1C(=O)N[C@H](C)CSCC(F)(F)F (stereo partly drawn) [F97, 2-Fluoro-6-methyl-4-((E)-4,4,4-trifluoro-3-(3,4,5-trichlorophenyl)but-1-en-1-yl)-N—((R)-1-((2,2,2-trifluoroethyl)thio)propan-2-yl)benzamide] |  | A (80-100) | 50 to 100% | 50 to 100% |  |  |  |  |  | 
C[C@H](CS(=O)(=O)CC(F)(F)F)NC(=O)c1ccc(/C=C/C(c2cc(Br)cc(Br)c2)C(F)(F)F)cc1Cl (stereo partly drawn) [F65, 2-Chloro-4-((E)-3-(3,5-dibromophenyl)-4,4,4-trifluorobut-1-en-1-yl)-N—((R)-1-((2,2,2-trifluoroethyl)sulfonyl)propan-2-yl)benzamide] |  | A (80-100) | 50 to 100% | 50 to 100% |  |  |  |  |  | 
C[C@H](CSCC(F)(F)F)NC(=O)c1ccc(/C=C/C(c2cc(Cl)c(Cl)c(C=O)c2)C(F)(F)F)cc1C(F)(F)F (stereo partly drawn) [F100, 4-((E)-3-(3,4-Dichloro-5-formylphenyl)-4,4,4-trifluorobut-1-en-1-yl)-N—((R)-1-((2,2,2-trifluoroethyl)thio)propan-2-yl)-2-(trifluoromethyl)benzamide] |  | B (More than 0-Less than 80) | 50 to 100% | 50 to 100% |  |  |  |  |  | 
C[C@H](CCSCC(F)(F)F)NC(=O)c1ccc(/C=C/C(c2cc(Cl)c(Cl)c(Cl)c2)C(F)(F)F)cc1C(F)(F)F (stereo partly drawn) [F96, 4-((E)-4,4,4-Trifluoro-3-(3,4,5-trichlorophenyl)but-1-en-1-yl)-N—((R)-4-((2,2,2-trifluoroethyl)thio)butan-2-yl)-2-(trifluoromethyl)benzamide] |  | A (80-100) | 50 to 100% | 50 to 100% |  |  |  |  |  | 
C[C@H](CS(=O)(=O)CC(F)(F)F)NC(=O)c1ccc(/C=C/C(c2cc(Cl)c(F)c(Cl)c2)C(C)(F)F)cc1C(F)(F)F (stereo partly drawn) [F131, 4-((E)-3-(3,5-Dichloro-4-fluorophenyl)-4,4-difluoropent-1-en-1-yl)-N—((R)-1-((2,2,2-trifluoroethyl)sulfonyl)propan-2-yl)-2-(trifluoromethyl)benzamide] |  | D (No activity noticed in this bioassay) | 50 to 100% | 50 to 100% |  |  |  |  |  | 
C[C@H](CSCC(F)(F)F)NC(=O)c1ccc(/C=C/C(c2cc(Br)c(Cl)c(Br)c2)C(F)(F)F)cc1C(F)(F)F (stereo partly drawn) [F41, 4-((E)-3-(3,5-Dibromo-4-chlorophenyl)-4,4,4-trifluorobut-1-en-1-yl)-N—((R)-1-((2,2,2-trifluoroethyl)thio)propan-2-yl)-2-(trifluoromethyl)benzamide] |  | A (80-100) | 50 to 100% | 50 to 100% |  |  |  |  |  | 
C[C@H](CS(=O)(=O)CC(F)(F)F)NC(=O)c1ccc(/C=C/C(c2cc(Br)cc(Br)c2)C(F)(F)F)cc1C(F)(F)F (stereo partly drawn) [F61, 4-((E)-3-(3,5-Dibromophenyl)-4,4,4-trifluorobut-1-en-1-yl)-N—((R)-1-((2,2,2-trifluoroethyl)sulfonyl)propan-2-yl)-2-(trifluoromethyl)benzamide] |  | A (80-100) | 50 to 100% | 50 to 100% |  |  |  |  |  | 
C[C@H](CC[S+]([O-])CC(F)(F)F)NC(=O)c1ccc(/C=C/C(c2cc(Cl)c(Cl)c(Cl)c2)C(F)(F)F)cc1C(F)(F)F (stereo partly drawn) [F105, 4-((E)-4,4,4-Trifluoro-3-(3,4,5-trichlorophenyl)but-1-en-1-yl)-N-((2R)-4-((2,2,2-trifluoroethyl)sulfinyl)butan-2-yl)-2-(trifluoromethyl)benzamide] |  | A (80-100) | 50 to 100% | 50 to 100% |  |  |  |  |  | 
C[C@H](C[S+]([O-])CC(F)(F)F)NC(=O)c1ccc(/C=C/C(c2cc(Br)cc(Br)c2)C(F)(F)F)cc1C(F)(F)F (stereo partly drawn) [F60, 4-((E)-3-(3,5-Dibromophenyl)-4,4,4-trifluorobut-1-en-1-yl)-N-((2R)-1-((2,2,2-trifluoroethyl)sulfinyl)propan-2-yl)-2-(trifluoromethyl)benzamide] |  | A (80-100) | 50 to 100% | 50 to 100% |  |  |  |  |  | 
C[C@H](CSCC(F)(F)F)NC(=O)c1ccc(/C=C/C(c2cc(Br)cc(Br)c2)C(F)(F)F)cc1Cl (stereo partly drawn) [F64, 2-Chloro-4-((E)-3-(3,5-dibromophenyl)-4,4,4-trifluorobut-1-en-1-yl)-N—((R)-1-((2,2,2-trifluoroethyl)thio)propan-2-yl)benzamide] |  | A (80-100) | 50 to 100% | 50 to 100% |  |  |  |  |  | 
